Experiments:
[1] = molecular target: T1, mouse P-gp (Mus musculus, UniProt P21447, N83Q/N87Q/N90Q); experiment: Yeast chemosensitization; type: cell-based; settings: for IYeast, inhibition in the yeast cytotoxicity assay: P-gp-expressing yeast, +10 μM DOX; for Chemosensitizing effect on P-gp-expressing yeast toward DOX (in words): cellular assay
[2] = molecular target: T1, mouse P-gp; experiment: biochemical
[3] = molecular target: T1, mouse P-gp; settings: endrin vs its stereoisomer dieldrin

T1 sequence (P21447 whole entry N83Q/N87Q/N90Q): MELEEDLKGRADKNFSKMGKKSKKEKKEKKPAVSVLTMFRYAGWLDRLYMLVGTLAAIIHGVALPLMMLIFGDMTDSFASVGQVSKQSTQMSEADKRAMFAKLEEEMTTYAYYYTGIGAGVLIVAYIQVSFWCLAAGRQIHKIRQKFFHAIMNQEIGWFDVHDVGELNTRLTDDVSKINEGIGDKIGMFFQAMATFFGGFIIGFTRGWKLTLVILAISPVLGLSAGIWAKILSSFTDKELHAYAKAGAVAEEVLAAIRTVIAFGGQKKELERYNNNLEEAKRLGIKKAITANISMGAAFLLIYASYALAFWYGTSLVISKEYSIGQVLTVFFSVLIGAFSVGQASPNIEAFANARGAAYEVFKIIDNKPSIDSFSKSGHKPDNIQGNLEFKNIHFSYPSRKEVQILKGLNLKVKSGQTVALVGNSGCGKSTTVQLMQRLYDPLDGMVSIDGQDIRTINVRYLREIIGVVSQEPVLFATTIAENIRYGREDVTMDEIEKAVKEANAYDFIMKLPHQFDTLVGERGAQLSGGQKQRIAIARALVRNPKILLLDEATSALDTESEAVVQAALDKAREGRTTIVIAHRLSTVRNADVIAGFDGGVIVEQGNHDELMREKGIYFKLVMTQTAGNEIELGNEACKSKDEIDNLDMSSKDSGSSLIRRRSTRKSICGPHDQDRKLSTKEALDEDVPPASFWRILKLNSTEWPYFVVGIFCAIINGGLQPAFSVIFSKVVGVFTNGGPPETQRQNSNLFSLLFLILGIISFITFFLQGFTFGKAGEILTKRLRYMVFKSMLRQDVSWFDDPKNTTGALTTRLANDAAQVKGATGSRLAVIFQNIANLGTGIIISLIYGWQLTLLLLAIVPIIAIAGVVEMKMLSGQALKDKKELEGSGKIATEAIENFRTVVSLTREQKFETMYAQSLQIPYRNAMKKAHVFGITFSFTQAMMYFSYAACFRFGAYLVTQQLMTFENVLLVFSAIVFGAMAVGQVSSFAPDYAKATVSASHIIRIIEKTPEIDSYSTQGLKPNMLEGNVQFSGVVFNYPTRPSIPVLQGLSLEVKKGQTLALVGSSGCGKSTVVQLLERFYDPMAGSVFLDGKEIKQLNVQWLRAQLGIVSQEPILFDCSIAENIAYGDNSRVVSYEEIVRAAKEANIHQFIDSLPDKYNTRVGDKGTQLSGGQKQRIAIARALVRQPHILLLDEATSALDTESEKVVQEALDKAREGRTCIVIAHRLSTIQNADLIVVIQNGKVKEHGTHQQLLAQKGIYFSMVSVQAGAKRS

SMILES | IYeast, inhibition in the yeast cytotoxicity assay [1] | IC50 [2] | Chemosensitizing effect on P-gp-expressing yeast toward DOX (in words) [1] | Potency in ATPase assay relative to dieldrin [3]
Clc1cccc(Cl)c1-c1c(Cl)c(Cl)c(Cl)c(Cl)c1Cl [PCB-186] | N |  |  | 
Brc1ccc(Oc2c(Br)cc(Br)cc2Br)c(Br)c1 [PBDE-100] | Y | 23.2 µM |  | 
Cl[C@H]1[C@H](Cl)[C@@H](Cl)[C@H](Cl)[C@@H](Cl)[C@@H]1Cl [β-HCH, β-hexachlorocyclohexane] | N |  |  | 
Brc1c(Br)c(Br)c(Oc2c(Br)c(Br)c(Br)c(Br)c2Br)c(Br)c1Br [PBDE-209] | N |  |  | 
ClC1(Cl)C2(Cl)C3(Cl)C4(Cl)C(Cl)(Cl)C5(Cl)C3(Cl)C1(Cl)C5(Cl)C24Cl (stereo not shown) [Mirex] | N | 3 µM |  | 
COc1ccc(C(c2ccc(OC)cc2)C(Cl)(Cl)Cl)cc1 [Methoxychlor] | N | 21.7 µM |  | 
Clc1cc(Cl)c(-c2cc(Cl)c(Cl)c(Cl)c2)c(Cl)c1 [PCB-168] | N |  |  | 
ClC1=C(Cl)[C@]2(Cl)[C@@H]3[C@@H]4C[C@@H]([C@H]5O[C@@H]45)[C@@H]3[C@@]1(Cl)C2(Cl)Cl [Dieldrin] | Y | 21.8 µM | markedly lower inhibitory effect | 
ClC(Cl)=C(c1ccc(Cl)cc1)c1ccc(Cl)cc1 [4,4′-DDE, dichlorodiphenyldichloroethylene] | Y | 31.3 µM |  | 
Clc1cc(Cl)c(-c2cc(Cl)c(Cl)cc2Cl)cc1Cl [PCB-153] | N |  |  | 
Clc1cc(Cl)c(-c2cc(Cl)c(Cl)cc2Cl)c(Cl)c1 [PCB-154] | N |  |  | 
CCCCC(CC)COC(=O)c1ccccc1C(=O)OCC(CC)CCCC (stereo not shown) [DEHP, di(2-ethylhexyl)phthalate] | N |  |  | 
Clc1ccc(-c2cc(Cl)c(Cl)cc2Cl)cc1Cl [PCB-118] | N |  |  | 
Clc1cc(Cl)c(-c2c(Cl)cccc2Cl)c(Cl)c1Cl [PCB-145] | Y |  |  | 
CC(C)(c1ccc(O)cc1)c1ccc(O)cc1 [Bisphenol A] | N |  |  | 
Clc1ccc(-c2c(Cl)c(Cl)cc(Cl)c2Cl)c(Cl)c1 [PCB-147] | Y |  |  | 
ClC1=C(Cl)C2(Cl)C3C(Cl)C=CC3C1(Cl)C2(Cl)Cl (stereo not shown) [Heptachlor] | N | 10.4 µM |  | 
Clc1ccccc1-c1c(Cl)c(Cl)c(Cl)c(Cl)c1Cl [PCB-142] | Y |  |  | 
ClC1=C(Cl)C2(Cl)C3C4CC(C5OC45)C3C1(Cl)C2(Cl)Cl (stereo not shown) [Endrin] | Y | 1.1 µM | most pronounced chemosensitizing effect | ~20 times
Clc1cc(Cl)c(Cl)c(-c2c(Cl)cccc2Cl)c1Cl [PCB-152] | N |  |  | 
Clc1cc(-c2cc(Cl)c(Cl)c(Cl)c2)cc(Cl)c1Cl [PCB-169] | N |  |  | 
ClC1=C(Cl)C2(Cl)C3C4C=CC(C4)C3C1(Cl)C2(Cl)Cl (stereo not shown) [Aldrin] | Y | 26.2 µM |  | 
Cl[C@H]1[C@H](Cl)[C@H](Cl)[C@@H](Cl)[C@H](Cl)[C@H]1Cl [α-HCH, α-hexachlorocyclohexane] | N | 26.8 µM |  | 
Brc1ccc(Oc2ccccc2)cc1 [PBDE-3] | N |  |  | 
Brc1ccc(Oc2cc(Br)ccc2Br)c(Br)c1 [PBDE-49] | Y |  |  | 
O=S(=O)(O)C(F)(F)C(F)(F)C(F)(F)C(F)(F)C(F)(F)C(F)(F)C(F)(F)C(F)(F)F [PFOS, perfluorooctane sulfonate] | N |  |  | 
O=C(O)C(F)(F)C(F)(F)C(F)(F)C(F)(F)C(F)(F)C(F)(F)C(F)(F)F [PFOA, perfluorooctanoic acid] | N | 156 µM |  | 
Clc1cc(Cl)cc(-c2c(Cl)cc(Cl)c(Cl)c2Cl)c1 [PCB-161] | N |  |  | 
Cl[C@H]1[C@H](Cl)[C@@H](Cl)[C@@H](Cl)[C@H](Cl)[C@H]1Cl [γ-HCH (lindane), lindane] | N | 82.6 µM |  | 

— publication PMC4846432 (Science Advances, 2016)
